# Test results: US7811778B2, “Methods of screening for gastrointestinal cancer” (Vanderbilt University, priority 2006, dated 2010)
# Where “and” joins values, the source holds several entries; their conditions need not be identical. Equal entries are not always repeated. Entries after “also recorded” stand apart in the source; their conditions may differ.
# Columns and labels:
# parietal cells = details: cited from earlier work
# fundic mucosa = assay: Immunohistochemistry / immunofluorescence of stomachs of DMP-777-treated mice; type: in vivo, gastrin-deficient mice
# From the text: Excised stomachs from Gastrin-deficient mice treated with DMP-777 or untreated controls embedded in paraffin were used for immunohistochemistry analysis Stomachs from C57BL/6 wild-type mice and sections from H. felis-infected C57BL/6 mice (infected for 6 months) were also examined with staining as a comparison. For immunohistochemistry, except for Mist1 staining, deparaffinized sections were pretreated with antigen retrieval using Target Retrieval solution (DakoCytomation, Glostrup, Denmark) at 120° C. for 15 minutes, followed by immediate cooling using iced water. For immunohistochemistry of Mist1, Trilogy antigen retrieval solution (Cell Marque, Austin. Tex.) was used during the antigen retrieval procedure. Sections were treated with 2% blocking serum and then incubated with the primary antibody overnight at 4° C. Immunostaining was performed with the following primary antibodies; murine monoclonal immunoglobulin M (IgM) anti-trefoil factor family 2 (TFF2, a gift from Sir Nicholas Wright, Cancer Research UK; 1:1000); rabbit anti-Mist1 (1:2000); murine monoclonal anti-H/K-ATPase (a gift from Dr. Adam J. Smolka, Medical University of South Carolina; 1:100,000); rabbit anti-HE4 (1:2000); rabbit anti-intrinsic factor (a gift from Dr. David Alpers, Washington University, St. Louis; 1:2000);, goat anti-Intrinsic factor (1:2000): rabbit anti-MCM3 (1:2000); rat monoclonal anti-Ki67 (TEC-3, DakoCytomation; 1:200).
# For immunofluorescence analysis, Cy3-goat anti-mouse IgM antibody, Cy5-goat anti-mouse IgG antibody (Jackson ImmunoResearch, West Grove, Pa.) and Alexa488 goat anti-rabbit IgG (Invitrogen, Carlsbad, Calif.) were used. PROLONG® Gold Antifade Reagent with DAPI (Invitrogen) was used for nuclear counterstain and mounting medium.
# For immunohistochemistry with detection with diaminobenzidine, the sections were incubated with biotinylated secondary antibody followed by horseradish peroxidase-conjugated streptavidin. Chromogen was developed with diaminobenzidine (Biogenex, San Ramon, Calif.). For immunohistochemistry with alkaline-phosphatase detection, the sections were incubated with biotinylated secondary antibody followed by alkaline-phosphatase-conjugated avidin-biotin complex. Chromogen was developed with VECTOR® Red Substrate (Vector Laboratories, Burlingame, Calif.). All sections were counterstained with Gill's hematoxylin.
# Sections were viewed and photographed on Zeiss AXIOPHOT® microscope equipped with an AXIOVISION® digital imaging system (Zeiss) or FLUOVIEW® FV1000 confocal microscope system (Olympus).
# [1] = test system: chief cells / SPEM cells at the bases of fundic glands; assay: Electron microscopy of gastric fundic region; type: in vivo; details: gastrin-deficient mice treated for 3 days with DMP-777
# Protocol: Fresh specimens from the gastric fundic region of untreated controls and 3-day DMP-777 treated gastrin-deficient mice fixed for 2.5 hour on ice in 2.5% glutaraldehyde, 0.1 M Cacodytate Buffer in PBS. The samples were fixed overnight at 4° C. in 1% osmium tetroxide (OSO4) and 0.1M Cacodylate Buffer. Subsequently, the samples were subjected to an ethanol dehydration series and embedded in Spurrs resin. 50˜100 nm thin sections were cut and collected on 200-mesh, formvar-coated copper grids. After drying overnight, the grids were contrast stained with 2% depleted Uranyl Acetate (UA) and then stained with saturated lead citrate. Samples were examined on a Philips CM12 Electron Microscope.
# emerging SPEM cells = assay: Quantitative PCR of transcripts in microdissected cells during emergence of SPEM; type: in vivo, gastrin-deficient mice
# Protocol: Total RNA isolated from laser-capture microdissected cell collections from the stomachs of normal and DMP-777 1-day-treated and DMP-777 3-day—treated gastrin-deficient mice was analyzed by quantitative PCR assays. Reverse transcription from each total RNA sample was performed using random primers and Quantiscript Reverse transcriptase (Qiagen. Valencia, Calif.), for 30 minutes at 42° C. Quantitative real-time PCR was performed with a 3-step method using the Bio-Rad iCycler iQ real-time PCR detection system (Bio-Rad Laboratories, Hercules, Calif.). Each reaction was carried out in a 50 μL mixture consisting of QuantiTect SYBR Green PCO Master Mix (Qiagen), and 1 μL of template cDNA. The PCR conditions for quantitative real-time PCR were; 95° C. for 10 minutes 45 cycles of 94° C. for 15 seconds, 60° C. for 30 seconds, and 72° C. for 30 seconds. Quantitation of cDNA template in each sample was determined using the comparative threshold cycle (CT) method using GAPDH as a control, as described previously (Nomura S, Baxter S, Yamaguchi T, Leys C, Vartapetian A B, Fox J G, Lee J R, Wang T C, Goldenring J R. Relationship of spasmolytic polypeptide expressing metaplasia (SPEM) to pre-neoplasia in H. felis-infected mice. Gastroenterology 2004; 127:582-594). Statistical comparisons of the mean ΔΔCT between groups were determined using the Mann-Whitney U Test
# However, by quantitative PCR assays, TFF2 levels were elevated greater than 7-fold in emerging SPEM from DMP-777 treated animals (FIG. 5).
# [2] = microdissected cells, DMP-777 1 or 3 days vs untreated chief cells
smiles,measurement,setting,value
CCC[C@@H](NC(=O)N1C(=O)C(CC)(CC)[C@@H]1Oc1ccc(C(=O)N2CCN(C)CC2)cc1)c1ccc2c(c1)OCO2 [DMP-777],inflammatory infiltrate,parietal cells; DMP-777 treated animals,absence of significant inflammatory infiltrate
same,induction of SPEM in gastrin-deficient (knockout) mice,parietal cells; gastrin knockout mice,rapid induction of metaplasia after only one day of DMP-777 treatment; also recorded: develop SPEM after only one dose of DMP-777; also recorded: develop SPEM after only a single dose of DMP-777
same,surface cell (foveolar) hyperplasia in response to DMP-777,parietal cells; gastrin knockout mice,do not develop surface cell hyperplasia
same,cells expressing both intrinsic factor and TFF2 (dual expressing cells),"parietal cells; gastrin-deficient mice, after only one day of treatment",rapid increase in dual expressing cells
same,loss of parietal cells,"parietal cells; mice or rats, high doses of oral DMP-777 (>200 mg/kg/d), three days of administration",rapid loss of parietal cells
same,time of oxyntic atrophy until SPEM develops in the fundus,"parietal cells; mice or rats, oral DMP-777 >200 mg/kg/d",7 to 10 days
same,dysplastic lesions,"parietal cells; mice or rats, prolonged administration of drug for up to a year",no dysplastic lesions are ever observed
same,time to loss of acid-secreting parietal cells,parietal cells; rodents,within one to three days
same,days of treatment required for SPEM in wild type C57BL/6 mice,parietal cells; wild type C57BL/6 mice,7 to 10 days and 10 to 14 days
same,quantification of Ki-67 staining (FIG. 6F),"fundic mucosa; 1 to 14 days of treatment, *p<0.05 at 7 days","smaller increase, which was only significant at 7 days of treatment"
same,HE4 expression in SPEM cells at the bases of fundic glands (immunostaining),fundic mucosa; DMP-777 treated gastrin-deficient mice,prominent up-regulation
same,TACC3 expression in cells at the bases of gastric glands,fundic mucosa; after only one day of DMP-777 treatment,TACC3 expression was evident
same,HE4 immunoreactivity in SPEM,fundic mucosa; after only one day of treatment,markedly increased
same,quantification of MCM3 staining (FIG. 6F),"fundic mucosa; days 3-14 of treatment, **p<0.01, ***p<0.001",significant increase
same,TFF2 and intrinsic factor staining in cells at the bases of fundic glands,fundic mucosa; gastrin deficient mice treated for 3 days with DMP-777,SPEM cells expressing two separate populations of TFF2 and intrinsic factor staining granules were present
same,Ki67 positive cell numbers,fundic mucosa; gastrin-deficient mice after DMP-777 treatment,only a small increase
same,number of Mist1 immunoreactive cells at the bases of glands,fundic mucosa; gastrin-deficient mice treated with DMP-777 for three days,decreased
same,number of MCM3 positive cells,"fundic mucosa; gastrin-deficient mice, after 1 day of DMP-777, remained elevated through 14 days",increased
same,TACC3 expression in SPEM cells at the bases of fundic glands,fundic mucosa; treatment with DMP-777 for 3 days,strongly up-regulated
same,granule morphology of SPEM cells at the bases of fundic glands (electron microscopy),[1],heterogeneous set of granule morphologies
same,morphological evidence of apoptosis (electron microscopy),[1],no morphological evidence of apoptosis
same,TFF2 levels by quantitative PCR,emerging SPEM cells; emerging SPEM from DMP-777 treated animals vs untreated chief cells,greater than 7 fold
same,"G1/S associated transcripts MCM3, MCM5, MCM7 and ATF3 by quantitative PCR",emerging SPEM cells; [2],up-regulation of G1/associated transcripts was confirmed
same,ST3Gal6 transcript by quantitative PCR,emerging SPEM cells; [2],down-regulation ST3Gal6 was confirmed
same,transcripts for putative soluble mediators HE4 and IL1RN by quantitative PCR,emerging SPEM cells; [2],up-regulation of transcripts for putative soluble mediators was also confirmed
